# Measurements as given in US10570149B2, “Tricyclic heterocylic derivatives” (MERCK PATENT GMBH, priority 2016, dated 2020).
# Target: T1, ATR/ATRIP (Homo sapiens, UniProt Q13535)
# T1 construct: human ATR, full length, GenBank ID: NM_001184.3; p53: Sf21 insect cells
# Assay: ATR/ATRIP kinase assay (TR-FRET, p53 phosphorylation)
# Format: biochemical
# Conditions: Table 1, class symbols; read-out: ATR-ATRIP IC50
# Procedure: ATR/ATRIP Kinase Assay—Measurement of ATR/ATRIP Inhibition
# The IC50 value was determined by an ATR/ATRIP enzymatic assay. The assay comprises two steps: the enzymatic reaction and the detection step. First, a mixture of ATR/ATRIP protein (Ataxia Telangiectasia and Rad3-related protein/ATR interacting protein), the compound in question at different concentrations, p53 as substrate protein and adenosine triphosphate (ATP) are incubated in assay buffer. ATR phosphorylates p53 at Ser15 and other residues. The amount of phosphorylated p53 is then detected using specific antibodies and the TR-FRET assay technology.
# In detail: The ATR/ATRIP enzymatic assay is performed as a TR-FRET-(HTRF™, Cisbio Bioassays) based 384-well assay. In a first step, purified human recombinant ATR/ATRIP (human ATR, full length, GenBank ID: NM_001184.3, and human ATRIP, full length, GenBank ID AF451323.1, co-expressed in a mammalian cell line) is incubated in assay buffer for 15 minutes at 22° C. with test compound at different concentrations or without test compound (as a negative control). The assay buffer contains 25 mM HEPES pH 8.0, 10 mM Mg(CH3COO)2, 1 mM MnCl2, 0.1% BSA, 0.01% Brij® 35, and 5 mM dithiothreitol (DTT). […] Then, in a second step, purified human recombinant cmyc-tagged p53 (human p53, full length, GenBank ID: BC003596, expressed in Sf21 insect cells) and ATP are added and the reaction mixture is incubated for 25-35 minutes, typically 25 minutes, at 22° C. The pharmacologically relevant assay volume is 5 μl. The final concentrations in the assay during incubation of the reaction mixture are 0.3-0.5 nM, typically 0.3 nM, ATR/ATRIP, 50 nM p53, and 0.5 μM ATP. The enzymatic reaction is stopped by the addition of EDTA. […] Following signal development for 2 h the plates are analyzed in an EnVision (PerkinElmer) microplate reader using the TRF mode with laser excitation. […] Data are processed employing the Genedata Screener software. In particular, IC50 values are determined in the usual manner by fitting a dose-response curve to the data points using nonlinear regression analysis.
# T1 sequence (Q13535 whole entry): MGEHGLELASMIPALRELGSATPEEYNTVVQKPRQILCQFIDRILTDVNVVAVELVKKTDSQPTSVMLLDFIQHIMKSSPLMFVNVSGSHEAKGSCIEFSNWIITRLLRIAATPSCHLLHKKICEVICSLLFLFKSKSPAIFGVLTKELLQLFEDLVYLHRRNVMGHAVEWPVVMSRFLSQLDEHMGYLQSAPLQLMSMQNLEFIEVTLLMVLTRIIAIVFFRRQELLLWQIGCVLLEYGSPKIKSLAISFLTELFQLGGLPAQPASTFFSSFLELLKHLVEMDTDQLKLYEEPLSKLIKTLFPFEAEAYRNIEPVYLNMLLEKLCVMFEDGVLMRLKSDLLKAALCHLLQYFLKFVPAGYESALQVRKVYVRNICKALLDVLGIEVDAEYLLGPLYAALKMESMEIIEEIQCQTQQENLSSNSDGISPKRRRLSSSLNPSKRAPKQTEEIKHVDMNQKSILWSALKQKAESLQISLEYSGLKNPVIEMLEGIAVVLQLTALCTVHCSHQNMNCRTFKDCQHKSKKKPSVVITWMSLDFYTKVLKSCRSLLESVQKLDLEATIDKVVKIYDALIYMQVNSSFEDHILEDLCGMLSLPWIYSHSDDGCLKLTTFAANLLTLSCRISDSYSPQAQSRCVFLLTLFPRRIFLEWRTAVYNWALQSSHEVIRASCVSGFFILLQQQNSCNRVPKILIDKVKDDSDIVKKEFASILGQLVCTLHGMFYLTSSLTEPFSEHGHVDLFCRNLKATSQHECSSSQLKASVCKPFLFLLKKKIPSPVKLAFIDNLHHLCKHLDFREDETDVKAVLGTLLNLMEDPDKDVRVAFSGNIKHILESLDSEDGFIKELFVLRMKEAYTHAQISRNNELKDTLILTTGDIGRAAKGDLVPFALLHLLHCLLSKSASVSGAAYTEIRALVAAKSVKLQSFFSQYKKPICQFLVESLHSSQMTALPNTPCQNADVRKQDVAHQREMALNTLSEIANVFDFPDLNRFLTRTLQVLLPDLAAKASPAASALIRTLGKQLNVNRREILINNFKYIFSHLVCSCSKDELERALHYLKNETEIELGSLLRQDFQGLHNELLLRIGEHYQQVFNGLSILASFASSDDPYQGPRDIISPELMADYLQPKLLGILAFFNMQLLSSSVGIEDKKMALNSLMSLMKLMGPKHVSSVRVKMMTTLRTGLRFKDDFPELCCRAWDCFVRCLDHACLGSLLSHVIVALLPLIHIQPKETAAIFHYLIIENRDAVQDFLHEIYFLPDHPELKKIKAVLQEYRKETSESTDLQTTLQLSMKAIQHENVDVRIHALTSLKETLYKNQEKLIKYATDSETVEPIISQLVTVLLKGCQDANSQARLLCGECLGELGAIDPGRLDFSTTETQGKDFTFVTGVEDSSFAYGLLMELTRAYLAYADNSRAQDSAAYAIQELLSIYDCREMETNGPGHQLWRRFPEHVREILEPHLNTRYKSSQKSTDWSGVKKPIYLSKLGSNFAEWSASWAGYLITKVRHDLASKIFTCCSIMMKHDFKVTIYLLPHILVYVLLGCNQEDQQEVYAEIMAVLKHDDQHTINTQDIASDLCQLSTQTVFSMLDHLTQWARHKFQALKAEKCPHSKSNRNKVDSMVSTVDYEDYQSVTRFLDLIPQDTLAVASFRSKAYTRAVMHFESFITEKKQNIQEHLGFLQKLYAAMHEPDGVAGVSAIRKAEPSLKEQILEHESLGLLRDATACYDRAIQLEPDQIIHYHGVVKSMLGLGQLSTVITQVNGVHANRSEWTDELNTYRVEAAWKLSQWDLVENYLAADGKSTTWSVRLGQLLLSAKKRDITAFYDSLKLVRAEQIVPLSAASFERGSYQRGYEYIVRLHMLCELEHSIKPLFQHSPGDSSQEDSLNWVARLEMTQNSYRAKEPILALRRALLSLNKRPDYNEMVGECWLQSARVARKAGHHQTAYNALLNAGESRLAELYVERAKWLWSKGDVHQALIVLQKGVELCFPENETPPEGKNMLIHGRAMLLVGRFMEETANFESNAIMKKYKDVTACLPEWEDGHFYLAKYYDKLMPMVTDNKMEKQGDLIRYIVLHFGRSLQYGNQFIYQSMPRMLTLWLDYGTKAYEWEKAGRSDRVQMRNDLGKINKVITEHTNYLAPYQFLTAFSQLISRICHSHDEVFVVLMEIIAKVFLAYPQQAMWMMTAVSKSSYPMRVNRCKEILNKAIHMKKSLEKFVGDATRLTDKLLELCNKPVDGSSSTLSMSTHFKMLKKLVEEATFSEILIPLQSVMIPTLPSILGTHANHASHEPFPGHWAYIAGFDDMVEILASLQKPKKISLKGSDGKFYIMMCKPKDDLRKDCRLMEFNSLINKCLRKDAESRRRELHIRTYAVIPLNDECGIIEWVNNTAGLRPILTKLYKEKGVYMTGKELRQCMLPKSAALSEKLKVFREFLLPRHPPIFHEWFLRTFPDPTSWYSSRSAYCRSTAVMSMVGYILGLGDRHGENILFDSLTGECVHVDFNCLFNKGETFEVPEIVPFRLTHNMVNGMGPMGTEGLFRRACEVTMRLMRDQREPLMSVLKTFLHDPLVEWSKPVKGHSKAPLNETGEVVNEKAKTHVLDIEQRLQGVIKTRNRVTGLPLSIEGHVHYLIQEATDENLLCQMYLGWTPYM
# T1 sequence (Q8WXE1 whole entry partner): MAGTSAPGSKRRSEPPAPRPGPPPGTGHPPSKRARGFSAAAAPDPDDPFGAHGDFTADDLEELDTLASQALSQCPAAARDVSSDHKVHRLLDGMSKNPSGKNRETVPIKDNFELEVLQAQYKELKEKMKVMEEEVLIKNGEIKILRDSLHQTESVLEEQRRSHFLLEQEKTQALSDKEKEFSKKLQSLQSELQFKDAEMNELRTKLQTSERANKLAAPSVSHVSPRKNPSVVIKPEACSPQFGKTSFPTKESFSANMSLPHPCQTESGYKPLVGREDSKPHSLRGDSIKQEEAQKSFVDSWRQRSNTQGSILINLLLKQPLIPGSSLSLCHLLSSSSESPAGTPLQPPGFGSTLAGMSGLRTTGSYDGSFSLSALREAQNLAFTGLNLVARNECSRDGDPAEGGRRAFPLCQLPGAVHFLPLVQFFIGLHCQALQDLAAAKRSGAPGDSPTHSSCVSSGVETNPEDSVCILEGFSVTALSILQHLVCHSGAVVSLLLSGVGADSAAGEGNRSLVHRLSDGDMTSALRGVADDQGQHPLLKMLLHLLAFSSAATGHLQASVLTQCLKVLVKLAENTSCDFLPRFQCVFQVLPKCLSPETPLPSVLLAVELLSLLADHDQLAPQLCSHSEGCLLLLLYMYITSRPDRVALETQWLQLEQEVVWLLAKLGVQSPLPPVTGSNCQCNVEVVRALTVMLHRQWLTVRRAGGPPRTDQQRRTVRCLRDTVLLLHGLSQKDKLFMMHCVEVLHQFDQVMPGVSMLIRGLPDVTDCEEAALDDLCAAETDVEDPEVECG
row,Compound,IC50
1,"C[C@@H]1COC[C@H]2COc3c(nc(Oc4cn[nH]c4)nc3C(C)(C)S(C)(=O)=O)N21 [A80, (5R,8aS)-1-(1-methanesulfonyl-1-methyl-ethyl)-5-methyl-3-(1H-pyrazol-4-yloxy)-5,6,8a,9-tetrahydro-8H-7,10-dioxa-2,4,4b-triaza-phenanthrene]",100 to 500 nM
2,"C[C@@H]1COC[C@H]2COc3c(nc(C(=O)NC[C@@H](C)O)nc3C(C)(C)S(C)(=O)=O)N21 [A53, (4bS,6R)-1-(1-methanesulfonyl-1-methyl-ethyl)-5-methyl-5,6,8a,9-tetrahydro-8H-7,10-dioxa-2,4,4b-triaza-phenanthrene-3-carboxylic Acid ((R)-2-hydroxy-propyl)-amide]",500 to 30000 nM
3,"C[C@@H]1COC[C@H]2COc3c(nc(C(=O)Nc4nnc[nH]4)nc3C(C)(C)S(C)(=O)=O)N21 [A55, (4bS,6R)-1-(1-methanesulfonyl-1-methyl-ethyl)-5-methyl-5,6,8a,9-tetrahydro-8H-7,10-dioxa-2,4,4b-triaza-phenanthrene-3-carboxylic Acid (4H-[1,2,4]triazol-3-yl)-amide]",10 to 100 nM
4,"C[C@@H]1COC[C@H]2COc3c(nc(NCc4cn[nH]c4)nc3C(C)(C)S(C)(=O)=O)N21 [A65, [(5R,8aS)-1-(1-methanesulfonyl-1-methyl-ethyl)-5-methyl-5,6,8a,9-tetrahydro-8H-7,10-dioxa-2,4,4b-triaza-phenanthren-3-yl]-(1H-pyrazol-4-ylmethyl)-amine]",500 to 30000 nM
5,"COC(=O)c1cn(Cc2nc(-c3ccnc4c3ccn4C)nc3c2OC[C@@H]2COC[C@@H](C)N32)nn1 [A19, 1-[(5R,8aS)-5-Methyl-3-(1-methyl-1H-pyrrolo[2,3-b]pyridin-4-yl)-5,6,8a,9-tetrahydro-8H-7,10-dioxa-2,4,4b-triaza-phenanthren-1-ylmethyl]-1H[1,2,3]triazole-4-carboxylic Acid Methyl Ester]",100 to 500 nM
6,"CNc1nc2ccccc2n1-c1nc(Cn2cc(C(=O)OC)nn2)c2c(n1)N1[C@@H](COC[C@H]1C)CO2 [A22, 1-[(5R,8aS)-5-Methyl-3-(2-methylamino-benzoimidazol-1-yl)-5,6,8a,9-tetrahydro-8H-7,10-dioxa-2,4,4b-triaza-phenanthren-1-ylmethyl]-1H[1,2,3]triazole-4-carboxylic Acid Methyl Ester]",10 to 100 nM
7,"C[C@@H]1COC[C@H]2COc3c(nc(-n4cc(C(N)=O)cn4)nc3C(C)(C)S(C)(=O)=O)N21 [A68, 1-[(S)-1-(1-methanesulfonyl-1-methyl-ethyl)-5-(R)-methyl-5,6,8a,9-tetrahydro-8H-7,10-dioxa-2,4,4b-triaza-phenanthren-3-yl]-1H-pyrazole-4-carboxylic Acid Amide]",500 to 30000 nM
8,"C[C@@H]1COC[C@H]2COc3c(nc(-c4cncc(CO)c4)nc3C(C)(C)S(C)(=O)=O)N21 [A40, {5-[(5R,8aS)-1-(1-methanesulfonyl-1-methyl-ethyl)-5-methyl-5,6,8a,9-tetrahydro-8H-7,10-dioxa-2,4,4b-triaza-phenanthren-3-yl]-pyridin-3-yl}-methanol]",1 to 10 nM
9,"C[C@@H]1COC[C@H]2COc3c(nc(C(=O)N4CC[C@@H](N)C4)nc3C(C)(C)S(C)(=O)=O)N21 [A51, ((R)-3-amino-pyrrolidin-1-yl)-[(4bS,6R)-1-(1-methanesulfonyl-1-methyl-ethyl)-5-methyl-5,6,8a,9-tetrahydro-8H-7,10-dioxa-2,4,4b-triaza-phenanthren-3-yl]-methanone]",500 to 30000 nM
10,"C[C@@H]1COC[C@H]2COc3c(nc(-c4ccc5ncccc5c4)nc3C(C)(C)S(C)(=O)=O)N21 [A77, (5R,8aS)-1-(1-methanesulfonyl-1-methyl-ethyl)-5-methyl-3-quinolin-6-yl-5,6,8a,9-tetrahydro-8H-7,10-dioxa-2,4,4b-triaza-phenanthrene]",10 to 100 nM

# The next lines start with the values.
row,IC50,Compound
1,500 to 30000 nM,"C[C@@H]1COC[C@H]2COc3c(nc(-c4ccc(C5(N)COC5)cc4)nc3C(C)(C)S(C)(=O)=O)N21 [A62, 3-{4-[(5R,8aS)-1-(1-methanesulfonyl-1-methyl-ethyl)-5-methyl-5,6,8a,9-tetrahydro-8H-7,10-dioxa-2,4,4b-triaza-phenanthren-3-yl]-phenyl}-oxetan-3-ylamine]"
2,1 to 10 nM,"COC(=O)c1cn(Cc2nc(-c3ccnc4[nH]ccc34)nc3c2OC[C@@H]2COC[C@@H](C)N32)nn1 [A18, 1-[(5R,8aS)-5-Methyl-3-(1H-pyrrolo[2,3-b]pyridin-4-yl)-5,6,8a,9-tetrahydro-8H-7,10-dioxa-2,4,4b-triaza-phenanthren-1-ylmethyl]-1H-[1,2,3]triazole-4-carboxylic Acid Methyl Ester]"
3,10 to 100 nM,"C[C@@H]1COC[C@H]2COc3c(nc(Nc4cn[nH]c4)nc3C(C)(C)S(C)(=O)=O)N21 [A75, [(5R,8aS)-1-(1-methanesulfonyl-1-methyl-ethyl)-5-methyl-5,6,8a,9-tetrahydro-8H-7,10-dioxa-2,4,4b-triaza-phenanthren-3-yl]-(1H-pyrazol-4-yl)-amine]"
4,10 to 100 nM,"C[C@@H]1COC[C@H]2COc3c(nc(-n4ccc(O)n4)nc3C(C)(C)S(C)(=O)=O)N21 [A82, 1-[(5R,8aS)-1-(1-methanesulfonyl-1-methyl-ethyl)-5-methyl-5,6,8a,9-tetrahydro-8H-7,10-dioxa-2,4,4b-triaza-phenanthren-3-yl]-1H-pyrazol-3-ol]"
5,10 to 100 nM,"C[C@@H]1COC[C@H]2COc3c(nc(-c4ccc5ccncc5c4)nc3C(C)(C)S(C)(=O)=O)N21 [A76, (5R,8aS)-3-isoquinolin-7-yl-1-(1-methanesulfonyl-1-methyl-ethyl)-5-methyl-5,6,8a,9-tetrahydro-8H-7,10-dioxa-2,4,4b-triaza-phenanthrene]"
6,10 to 100 nM,"C[C@@H]1COC[C@H]2COc3c(nc(N(C)c4nc5ccccc5[nH]4)nc3C(C)(C)O)N21 [A12, 2-{(5R,8aS)-3-[(1H-Benzimidazol-2-yl)-methyl-amino]-5-methyl-5,6,8a,9-tetrahydro-8H-7,10-dioxa-2,4,4b-triaza-phenanthren-1-yl}-propan-2-ol]"
7,10 to 100 nM,"COc1cnc2[nH]ccc2c1-c1nc2c(c(C(C)(C)S(C)(=O)=O)n1)OC[C@@H]1COC[C@@H](C)N21 [A88, (10S,14R)-6-(2-methanesulfonylpropan-2-yl)-4-{5-methoxy-1H-pyrrolo[2,3-b]pyridin-4-yl}-14-methyl-8,12-dioxa-1,3,5-triazatricyclo[8.4.0.0^2,7]tetradeca-2,4,6-triene]"
8,10 to 100 nM,"C[C@@H]1COC[C@H]2COc3c(nc(-c4cccc5c4CS(=O)(=O)N5)nc3C(C)(C)S(C)(=O)=O)N21 [A87, 4-[(10S,14R)-6-(2-methanesulfonylpropan-2-yl)-14-methyl-8,12-dioxa-1,3,5-triazatricyclo[8.4.0.0^{2,7}]tetradeca-2,4,6-trien-4-yl]-1,3-dihydro-2lambda6,1-benzothiazole-2,2-dione]"
9,500 to 30000 nM,"C[C@@H]1COC[C@H]2COc3c(nc(-c4c(F)ncc5c4ccn5C)nc3C(C)(C)S(C)(=O)=O)N21 [A38, (5R,8aS)-3-(5-fluoro-1-methyl-1H-pyrrolo[2,3-c]pyridin-4-yl)-1-(1-methanesulfonyl-1-methyl-ethyl)-5-methyl-5,6,8a,9-tetrahydro-8H-7,10-dioxa-2,4,4b-triaza-phenanthrene]"
10,100 to 500 nM,"CNc1nc2ccccc2n1-c1nc(Cn2cc(C(=O)O)nn2)c2c(n1)N1[C@@H](COC[C@H]1C)CO2 [A17, 1-[(5R,8aS)-5-Methyl-3-(2-methylamino-benzimidazol-1-yl)-5,6,8a,9-tetrahydro-8H-7,10-dioxa-2,4,4b-triaza-phenanthren-1-ylmethyl]-1H[1,2,3]triazole-4-carboxylic Acid]"
11,10 to 100 nM,"C[C@@H]1COC[C@H]2COc3c(nc(N(C)c4nc5ccccc5[nH]4)nc3C(C)(C)S(C)(=O)=O)N21 [A16, (1H-Benzimidazol-2-yl)-[(5R,8aS)-1-(1-methanesulfonyl-1-methyl-ethyl)-5-methyl-5,6,8a,9-tetrahydro-8H-7,10-dioxa-2,4,4b-triaza-phenanthren-3-yl]-methyl-amine]"
12,100 to 500 nM,"CNc1nc2ccccc2n1-c1nc(Cn2nncc2C(=O)O)c2c(n1)N1[C@@H](COC[C@H]1C)CO2 [A3, 3-[(5R,8aS)-5-Methyl-3-(2-methylamino-benzoimidazol-1-yl)-5,6,8a,9-tetrahydro-8H-7,10-dioxa-2,4,4b-triaza-phenanthren-1-ylmethyl]-3H[1,2,3]triazole-4-carboxylic Acid]"
